As usually defined, the Vss is a proportionality between amount in the body and measured concentration, not a real space. Low values mean little distribution into tissue, high ones wide distribution into tissue. The term AUC denotes the area under the concentration-time curve, a measure of exposure.

The format of data set [1] is in vivo, rat.
The conditions of data set [2]: humans, 5 g oral dose of a botanical mixture of 7 herbs; ref [28]; cited from earlier work.
For data set [3] the following is noted: ref [18][19][21][25][26][27], cited from earlier work.
For data set [4] the following is noted: intravenous 20 mg/kg, achiral, approximate; ref [25][26]; cited from earlier work.
Where [5] appears, read: rat serum, IV 20 mg/kg racemic liquiritigenin, mean ± SEM, n = 4, 20 mg/kg.
[6] abbreviates: oral, given alone or in a mixture (exact dose unknown), approximate.

Values joined by “and” are separate entries in the source; they are usually repeats but may differ in a detail not shown here. Equal values may be shown once. Read-outs that look alike come from different tables or passages of the source.

Compound `O=C1C[C@H](c2ccc(O)cc2)Oc2cc(O)ccc21` [R-liquiritigenin] had a t1/2 serum in data set [1] (setting [5]) of 32.59 ± 4.26 min. Moreover, the “fraction excreted unchanged in the urine (fe %)” value in data set [2] is on record as 50.9 ± 21.6%.

Take `O=C1C[C@@H](c2ccc(O)cc2)Oc2cc(O)ccc21` [S-liquiritigenin]: the “fraction excreted unchanged in the urine (fe %)” value in data set [2] is given as 36.2 ± 19.0%.

For `O=C1C[C@@H](c2ccc(O)cc2)Oc2cc(O)ccc21` [liquiritigenin], the “time liquiritigenin could be measured in serum” value in data set [1] (rat serum) is “only an hour”. In addition, the t1/2 serum in data set [1] (setting [5]) was 12 to 30 min and 15 to 32.4 min and 15 to 25.8 min. The “time liquiritigenin could be measured (detected) in urine” value in data set [1] (rat urine) was “up to 70 h”. For the same compound, the volume of distribution (Vss) in data set [1] (rat, IV 20 mg/kg racemic liquiritigenin, mean ± SEM, n = 4, 20 mg/kg) fell in the range of 2.7 to 4.6 L/kg. Further, the bioavailability in data set [3] (Kang, et al., oral doses of 20-50 mg/kg) was 3-7%. In addition, in data set [3] (setting [6]), the exposure (AUC) is 19 to 6594 ng·h/mL and the plasma half-lives was 3 to 11 h. For the same compound, in data set [4], the AUC was 290 to 410 µg·min/mL, the clearances was 50 to 70 mL/min/kg and the plasma half-lives was 5 to 8 min.

Source of the values: PMC5465826 (Research in Pharmaceutical Sciences, 2017).
